{"source": "patent US9057725B2", "about": "“Composition for diagnosing, treating, and preventing liver disease” (SNU R&DB Foundation, priority 2010, dated 2015)", "key": {"[1]": {"tested_on": "AML12 cells", "assay": "TM4SF5 expression in AML12 cells treated with EGF, HGF and PDGF before TGFβ", "type": "cell-based, mouse", "conditions": "growth factor 30 minutes before TGFβ (2.5 ng/ml), 24 hours, serum-free", "method": "AML12 cells were cultured in DMEM supplemented with 10% FBS, which were then washed with serum-free DMEM. The cells were maintained as serum-free status for 4 hours. After serum starvation, the cells were treated with EGF, HGF, and PDGF (PeproTech, Inc., Rocky Hill, N.J., USA) 30 minutes before the treatment of TGFβ (2.5 ng/ml) in order to activate EGFR signaling. The cells were further cultured for 24 hours after the treatment of TGFβ. AML12 cell line was the normal hepatocyte cell line which was sensitive to serum. To make near death condition, the medium was regulated as serum-free and the experiment was carried out under the serum-free condition and ITS (Insulin, transferrin, selenium, Sigma-Aldrich) treated condition, which was the same serum-free condition as mentioned above.\nWestern blotting was performed to confirm TM4SF5 expression. As a result, when the cells were treated with EGF, HGF, and PDGF, EGFR signaling was activated and thereby TM4SF5 expression was increased (FIG. 11)."}, "[2]": {"target": "T1, TM4SF5 (Homo sapiens, UniProt O14894)", "T1 construct": "endogenous in cells; host or cells: Chang cells (ATCC), TGFβ-treated", "T1 sequence (O14894 1-197)": "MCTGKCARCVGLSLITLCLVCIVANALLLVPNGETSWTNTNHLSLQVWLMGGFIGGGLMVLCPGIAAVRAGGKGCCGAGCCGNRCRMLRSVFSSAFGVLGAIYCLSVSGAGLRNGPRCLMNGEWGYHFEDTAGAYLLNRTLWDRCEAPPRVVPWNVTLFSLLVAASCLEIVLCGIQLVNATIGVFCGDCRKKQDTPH", "assay": "TGFβ1 mediated vimentin expression in Chang cells, Western blotting", "type": "cell-based", "conditions": "5 μM or 10 μM", "method": "FIG. 26 is a set of photographs illustrating the results of Western blotting performed to confirm the level of vimentin expression mediated by TGFβ in Chang cells treated with TSAHC, 4′-(p-aminobenzenesulfoneamide)-4-hydroxychalcone, and 4,4-dihydroxychalcone.\n(§1) In addition, 4′-(p-aminobenzenesulfonamide)-4-hydroxychalcone (ASAHC), the water-soluble […], was treated to AML12 and Chang cells at the concentration of 5 μM or 10 μM."}, "[3]": {"target": "T2, TM4SF5 (Mus musculus, UniProt F6X2F3)", "T2 construct": "normal hepatocytes were treated with TGFβ to induce TM4SF5 expression and EMT, during which TSAHC was treated; endogenous in cells; host or cells: AML12 (ATCC), TGFβ-treated", "T2 sequence (F6X2F3 1-196)": "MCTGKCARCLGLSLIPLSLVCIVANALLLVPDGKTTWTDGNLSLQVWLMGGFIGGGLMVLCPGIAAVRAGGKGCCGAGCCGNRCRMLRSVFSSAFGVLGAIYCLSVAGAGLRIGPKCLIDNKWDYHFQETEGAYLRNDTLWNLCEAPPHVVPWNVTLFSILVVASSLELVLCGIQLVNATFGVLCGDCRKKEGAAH", "assay": "TGFβ1 mediated vimentin expression in AML12 cells, Western blotting", "type": "cell-based", "conditions": "5 μM or 10 μM", "method": "FIG. 27 is a set of photographs illustrating the results of Western blotting performed to confirm the level of vimentin expression mediated by TGFβ in AML12 cells treated with TSAHC, 4′-(p-aminobenzenesulfoneamide)-4-hydroxychalcone, and 4,4-dihydroxychalcone.\nas §1"}, "[4]": {"target": "T2, TM4SF5", "assay": "TGFβ mediated α-SMA expression in normal hepatocytes (AML12 cells) treated with TM4SF5 antagonist, Western blotting", "type": "cell-based", "method": "FIG. 25 is a set of photographs illustrating the results of Western blotting performed to confirm the level of α-SMA expression induced by TGFβ in AML12 cells treated with TSAHC and […].\nFirst, normal hepatocytes were treated with TGFβ to induce TM4SF5 expression and EMT, during which TSAHC was treated. As described hereinbefore, the normal hepatocytes were washed with serum-free DMEM, followed by serum starvation for 4 hours. Then, the cells treated with TGFβ to induce TM4SF5 expression. 6 hours later, the cells were treated with TSAHC at the concentration of 5 μM or 10 μM, followed by culture for 18 hours. The expression of α-SMA protein was investigated.\nFor the comparison, the cells were treated with the control compound that had similar structure to TSAHC but had substituted R residue (4′-amino-4-hydroxychalcone) at the same concentration as the above (5 μM or 10 μM)."}, "[5]": {"tested_on": "Balb/c mice treated with CCl4", "assay": "Hepatic injury and hepatic fibrosis induced by CCl4 in mice", "type": "in vivo, mouse", "conditions": "for hepatic injury (H&E staining): 50 mg/kG oral administration or IP, 3 times/week; for hepatic injury (H&E staining) / collagen type I expression (Masson's Trichrome staining): 2 weeks; for collagen type I expression (Masson's Trichrome staining): oral administration or IP, 50 mg/kG; for Ser10 phosphorylation induction (p27) / TM4SF5 signal transduction process (phosphorylation of Smad3, phosphorylation and activation of EFGR/Erk) / p27 expression / α-SMA expression induction: liver tissue extract, Western blotting", "method": "Balb/c mice (5 weeks old, n=5) were used. The mice were fed with sterilized water and feeds. For the biological day/night cycle, the indoor light was turned on for 12 hours and off for 12 hours. The mice were treated with CCl4 or ethanol for 2 weeks. The CCl4 group mice were treated with 40% CCl4 diluted in olive oil by intraperitoneal administration ([…], 3 times/week). The CCl4-ContComp group mice were treated with 4′-Amino-4-hydroxychalcone, the control compound (ContComp), every other day and every next day of CCl4 treatment by IP (intraperitoneal injection) or oral administration (50 mg/kG, 40% DMSO, 3 times/week). The CCl4-TSAHC group mice were treated with TSAHC every other day and every next day of CCl4 treatment by IP (intraperitoneal injection) or oral administration (50 mg/kG, 40% DMSO, 3 times/week).\nTwo weeks later, the mice were sacrificed by using ether. The liver was extracted from the sacrificed animal of each group. Paraffin samples were prepared by the same manner as described in Example 5. The paraffin sections in the thickness of 4-5 μm were fixed on slide, followed by H&E (hematoxylin and eosin) staining for the confirmation of hepatic injury, Masson's Trichrome […] staining for collagen type I staining, and immunihistochemistry with the antibody (1:1500) against α-SMA (smooth muscle actin, Sigma).\nAdditionally, two mice were randomly selected from each group, from which liver tissue extract was prepared. The protein in the extract was quantified, followed by Western blotting with antibodies against phospho-Y^1173EGFR (Santa Cruz Biotechnology, Santa Cruz, Calif.), phospho-Y^1068EGFR (Santa Cruz Biotechnology, Santa Cruz, Calif.), EGFR (Santa Cruz Biotechnology, Santa Cruz, Calif.), phospho-Erk (Cell Signaling Technology, Danvers, Mass.), Erk (Cell Signaling Technology, Danvers, Mass., USA), phospho-Smad3 (Cell Signaling Technology, Danvers, Mass.), TM4SF5 (antibody of Example 1), α-SMA (smooth muscle actin, Sigma), phospho-S^10-p27 (Santa Cruz Biotechnology, Santa Cruz, Calif., USA), p27 (BD Transduct. Lab. San Jose Calif., USA), and α-tubulin (Sigma-Aldrich)."}, "[6]": {"tested_on": "Chang cells", "assay": "TM4SF5 expression and EGFR signal transduction system over treatment times of TGFβ and EGF in Chang cells", "type": "cell-based, human", "method": "Chang cells were cultured in DMEM supplemented with 10% FBS, which were then washed with serum-free DMEM. The cells were maintained as serum-free status for 4 hours. […] Then, TM4SF5 expression and EGFR signal transduction system were investigated."}, "[7]": {"conditions": "AML12 cells, compound 5 μM or 10 μM 6 hours after TGFβ, culture for 18 hours, Western blotting"}, "[8]": {"conditions": "liver tissue of CCl4 treated mice"}}, "note": "Entries after “also recorded” stand apart in the source; their conditions may differ.", "data": [{"compound": "PDGF", "values": [{"measurement": "TM4SF5 expression", "setting": "[1]", "value": "increased"}]}, {"compound": "O=C(/C=C/c1ccc(O)cc1)c1ccc(O)cc1", "note": "[4′4-dihydroxychalcone, reference compound]", "values": [{"measurement": "TGFβ1 mediated vimentin expression", "setting": "[2]", "value": "not much changed"}, {"measurement": "TGFβ1 mediated vimentin expression", "setting": "[3]", "value": "not much changed"}]}, {"compound": "Cc1ccc(S(=O)(=O)Nc2ccc(C(=O)/C=C/c3ccc(O)cc3)cc2)cc1", "note": "[TSAHC, 4′-(p-toluenesulfonylamino)-4-hydroxychalcone]", "values": [{"measurement": "TGFβ mediated α-SMA expression", "setting": "[4]; [7]", "value": "significantly reduced; also recorded: inhibit"}, {"measurement": "EFGR/Erk phosphorylation", "setting": "[4]; normal hepatocytes treated with TGFβ and compound", "value": "reduced"}, {"measurement": "TGFβ1 mediated vimentin expression", "setting": "[2]", "value": "down-regulated"}, {"measurement": "hepatic injury (H&E staining)", "setting": "[5]; CCl4 together with compound", "value": "reduced"}, {"measurement": "α-SMA expression (immunohistochemical staining)", "setting": "[5]; CCl4 together with compound, liver tissue", "value": "reduced"}, {"measurement": "collagen type I expression (Masson's Trichrome staining)", "setting": "[5]; CCl4 together with compound", "value": "decrease; also recorded: reduced"}, {"measurement": "liver H&E staining, compound only", "setting": "[5]; group treated with compound only, without CCl4", "value": "normal liver"}, {"measurement": "Ser10 phosphorylation induction (p27)", "setting": "[5]", "value": "inhibited"}, {"measurement": "TM4SF5 signal transduction process (phosphorylation of Smad3, phosphorylation and activation of EFGR/Erk)", "setting": "[5]", "value": "not affected"}, {"measurement": "p27 expression", "setting": "[5]", "value": "inhibited"}, {"measurement": "α-SMA expression induction", "setting": "[5]", "value": "inhibited"}, {"measurement": "EMT", "setting": "[5]; [8]", "value": "decrease; also recorded: inhibited"}, {"measurement": "TM4SF5 activity", "setting": "[5]; [8]", "value": "suppressed"}, {"measurement": "TGFβ1 mediated vimentin expression", "setting": "[3]", "value": "down-regulated"}]}, {"compound": "HGF: growth factor (PeproTech) used to activate EGFR signaling", "values": [{"measurement": "TM4SF5 expression", "setting": "[1]", "value": "increased"}]}, {"compound": "Nc1ccc(C(=O)/C=C/c2ccc(O)cc2)cc1", "note": "[4′-amino-4-hydroxychalcone, reference compound]", "values": [{"measurement": "TGFβ mediated α-SMA expression", "setting": "[4]; [7]", "value": "did not affect"}, {"measurement": "TM4SF5 expression", "setting": "[4]; [7]", "value": "did not affect"}, {"measurement": "hepatic injury (H&E staining)", "setting": "[5]; CCl4 together with compound", "value": "CCl4 dependency was not observed"}, {"measurement": "collagen type I expression (Masson's Trichrome staining)", "setting": "[5]; CCl4 together with compound", "value": "not detected"}, {"measurement": "Ser10 phosphorylation induction (p27)", "setting": "[5]", "value": "not inhibited"}, {"measurement": "TM4SF5 signal transduction process (phosphorylation of Smad3, phosphorylation and activation of EFGR/Erk)", "setting": "[5]", "value": "not affected"}, {"measurement": "p27 expression", "setting": "[5]", "value": "not inhibited"}, {"measurement": "α-SMA expression induction", "setting": "[5]", "value": "not inhibited"}, {"measurement": "EMT", "setting": "[5]; [8]", "value": "not inhibited"}]}, {"compound": "Nc1ccc(S(=O)(=O)Nc2ccc(C(=O)/C=C/c3ccc(O)cc3)cc2)cc1", "note": "[ASAHC, 4′-(p-aminobenzenesulfonylamino)-4-hydroxychalcone]", "values": [{"measurement": "TGFβ1 mediated vimentin expression", "setting": "[2]", "value": "down-regulated"}, {"measurement": "TGFβ1 mediated vimentin expression", "setting": "[3]", "value": "down-regulated"}]}, {"compound": "EGF: growth factor (PeproTech) used to activate EGFR signaling", "values": [{"measurement": "TM4SF5 expression", "setting": "[1]", "value": "increased"}, {"measurement": "EGFR signal transduction system activation and TM4SF5 expression, EGF only", "setting": "[6]; EGF only for 4 hours at different concentrations", "value": "not particularly induced"}, {"measurement": "EGFR signal transduction system activation and TM4SF5 expression over time", "setting": "[6]; TGFβ (2.5 ng/ml) and EGF (50 ng/ml), 0, 0.5, 1, 2, and 24 hours", "value": "induced temporally"}]}]}
